Here are results for three compounds from PMC3256138, “Disease Progression in MRL/lpr Lupus-Prone Mice Is Reduced by NCS 613, a Specific Cyclic Nucleotide Phosphodiesterase Type 4 (PDE4) Inhibitor” (PLoS ONE, 2012).

Like-named read-outs stand apart in the source and are kept apart here.

The subject of data set [1] is PDE4. The data set can be described thus: IC50 on purified PDE4 isozyme. It is filed as biochemical, bovine. The note with it: for IC50: 1 µM cAMP substrate, mean±s.e.m. of three experiments. The protocol:
(§1) PDE1, PDE3, PDE4 and PDE5 were isolated by anion exchange chromatography from bovine aortic smooth muscle cytosolic fraction. PDE2 was isolated from human platelets following the method described in [44]. Purified PDEs were stored as small aliquots at −80°C until use. PDE activity was determined at a substrate concentration of 1 µM cAMP or cGMP in the presence of 10,000 cpm [^3H]-cAMP or -cGMP as tracers. PDE1 activity was assessed at 1 µM cGMP in calmodulin-activated state (18 nM calmodulin with 10 µM CaCl2). PDE2 activity was assessed at 1 µM cAMP in activated state (+5 µM cGMP), and PDE3 and PDE4 activities were assessed at 1 µM cAMP in the presence of 1 mM EGTA. […] PDE5 activity was measured at 1 µM cGMP in the presence of 1 mM of EGTA. […] This concentration of DMSO had no effect when tested in control preparation.

Data set [2] has as its system PDE1. The data set is described as follows: IC50 on purified PDE1 isozyme (calmodulin-activated). It is filed as biochemical, bovine. The note with it: 1 µM cGMP substrate, CaM modulator; mean±s.e.m. of three experiments. On the procedure: as §1
In data set [3] the test system is MRL/lpr lupus-prone mice. The data set is described as follows: Treatment of MRL/lpr lupus-prone mice with PDE inhibitors: proteinuria, survival, anti-DNA antibodies. To be noted: for Median survival time / Mice with positive proteinuria: 100 µg i.v. at 5, 7, 9 and 13 weeks; for Mice with positive proteinuria: at 18 weeks of age; for Age at which treated mice started dying / Proteinuria level compared to the control group: i.v. at 5, 7, 9 and 13 weeks; for Age at which treated mice started dying: control 17 weeks; for Proteinuria level compared to the control group: 100 µg pentoxifylline or 30 µg NCS 613.
Procedure: All mice were monitored regularly for different clinical and biological parameters over 26 weeks. Measurements of outcome included the evaluation of survival and proteinuria measured on a fresh urine sample. Protein levels were determined using colored strips (Albutix; Bayer Diagnostics, Basingstoke, UK) and scored at values corresponding to 30, 100, 300 and >2000 mg/dL.

The subject of data set [4] is PBLs from MRL/lpr mice. The data set can be described thus: Ex vivo LPS-induced TNFα secretion by PBLs from treated MRL/lpr mice. It is filed as in vivo, mouse. The note with it: PBLs of 14 week-old mice treated i.v. (100 µg pentoxifylline or denbufylline, 30 µg NCS 613); 5 µg/mL LPS, 24 h. On the procedure: Blood samples were pooled from groups of seven 14 week-old treated mice. PBLs were purified by density separation (Lympholyte-M, d = 1.0875; Cedarlane, Hornby, Canada), washed three times, and resuspended at 5×10^6 cells/ml in L-alanyl-L-glutamine-enriched RPMI 1640 medium (Cambrex, Verviers, Belgium) containing 10% (v/v) fetal calf serum (Dutscher, Brumath, France), HEPES, gentamycin and β-mercaptoethanol. They were cultured in duplicate using 5×10^5 cells/well in the presence of 5 µg/mL LPS from E. coli. Culture supernatants were collected after 24 h and stored frozen at −20°C. TNFα levels were determined using a double-sandwich ELISA (PharMingen, San Diego, CA; detection limit 30 pg/mL) according to the manufacturer's instructions.

In data set [5] the target is T1, PDE2 (Homo sapiens, UniProt O00408).
T1 construct: PDE2 was isolated from human platelets; from tissue; host or cells: human platelets
T1 sequence (O00408 whole entry): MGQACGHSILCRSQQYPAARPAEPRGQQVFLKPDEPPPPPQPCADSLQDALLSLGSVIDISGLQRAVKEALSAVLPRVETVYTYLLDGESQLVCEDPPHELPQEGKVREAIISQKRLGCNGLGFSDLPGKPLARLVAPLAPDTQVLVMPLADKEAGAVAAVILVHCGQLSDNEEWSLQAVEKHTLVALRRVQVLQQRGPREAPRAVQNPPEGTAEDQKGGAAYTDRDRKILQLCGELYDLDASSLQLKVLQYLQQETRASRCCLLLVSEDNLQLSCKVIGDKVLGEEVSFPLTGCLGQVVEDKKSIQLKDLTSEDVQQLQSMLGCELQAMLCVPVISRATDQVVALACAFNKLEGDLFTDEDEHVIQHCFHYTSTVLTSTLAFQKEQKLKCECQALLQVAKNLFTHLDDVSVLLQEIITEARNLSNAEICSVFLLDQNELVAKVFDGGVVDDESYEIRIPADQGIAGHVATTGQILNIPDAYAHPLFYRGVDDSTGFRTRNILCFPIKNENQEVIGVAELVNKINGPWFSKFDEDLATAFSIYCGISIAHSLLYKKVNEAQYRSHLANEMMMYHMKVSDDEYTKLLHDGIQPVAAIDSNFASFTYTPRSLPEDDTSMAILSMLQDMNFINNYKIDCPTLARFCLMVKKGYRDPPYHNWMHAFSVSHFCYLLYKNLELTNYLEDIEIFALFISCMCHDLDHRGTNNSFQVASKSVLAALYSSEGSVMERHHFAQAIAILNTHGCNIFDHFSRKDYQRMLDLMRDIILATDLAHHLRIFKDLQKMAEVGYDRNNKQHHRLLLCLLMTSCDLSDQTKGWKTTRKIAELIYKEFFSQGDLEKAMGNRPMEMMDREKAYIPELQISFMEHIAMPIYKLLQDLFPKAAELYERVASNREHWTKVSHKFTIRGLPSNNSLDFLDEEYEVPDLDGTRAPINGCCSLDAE
The data set is described as follows: IC50 on purified PDE2 isozyme (cGMP-activated). To be noted: 1 µM cAMP substrate, cGMP modulator; mean±s.e.m. of three experiments. Format: biochemical. On the procedure: as §1

Data set [6] addresses T2, PDE5 (Bos taurus, UniProt Q28156).
T2 construct: isolated by anion exchange chromatography from bovine aortic smooth muscle cytosolic fraction; from tissue; host or cells: bovine aortic smooth muscle cytosolic fraction
The data set is described as follows: IC50 on purified PDE5 isozyme. It is filed as biochemical, bovine. To be noted: 1 µM cGMP substrate; mean±s.e.m. of three experiments. The protocol: as §1

For data set [7], the system named is acid gastric secretion. Also on record: method as in PMID 10640302. The note with it: cited from earlier work.
A short description of data set [8]: Solubility in injection vehicle PBS-10% ethanol. To be noted: at 100 µg/100 µL. Format: physicochemical.
Data set [9] relates to human PBLs. Also on record: method as in PMID 10640302. To be noted: read-out: IC50 LPS-induced TNFα secretion by human PBLs; cited from earlier work.
Data set [10] relates to PBLs from SLE patients. The data set can be described thus: TNFα secretion by PBLs from SLE patients. Format: cell-based, human. To be noted: for Effect on LPS-induced TNFα production: 5 µg/mL LPS, 24 h. The protocol: PBLs were isolated by centrifugation on Ficoll-Histopaque (Sigma-Aldrich) and cultured as described above using 5×10^5 cells/well. […] Culture supernatants were collected 24 h later and stored frozen at −20°C before TNFα level determination, as described above.

In data set [11] the target is T3, human recombinant PDE4B (Homo sapiens, UniProt Q07343).
T3 construct: gift of Ted J. Torphy (SmithKline Beecham Pharmaceuticals, King of Prussia, PA, USA)
T3 sequence (Q07343 whole entry): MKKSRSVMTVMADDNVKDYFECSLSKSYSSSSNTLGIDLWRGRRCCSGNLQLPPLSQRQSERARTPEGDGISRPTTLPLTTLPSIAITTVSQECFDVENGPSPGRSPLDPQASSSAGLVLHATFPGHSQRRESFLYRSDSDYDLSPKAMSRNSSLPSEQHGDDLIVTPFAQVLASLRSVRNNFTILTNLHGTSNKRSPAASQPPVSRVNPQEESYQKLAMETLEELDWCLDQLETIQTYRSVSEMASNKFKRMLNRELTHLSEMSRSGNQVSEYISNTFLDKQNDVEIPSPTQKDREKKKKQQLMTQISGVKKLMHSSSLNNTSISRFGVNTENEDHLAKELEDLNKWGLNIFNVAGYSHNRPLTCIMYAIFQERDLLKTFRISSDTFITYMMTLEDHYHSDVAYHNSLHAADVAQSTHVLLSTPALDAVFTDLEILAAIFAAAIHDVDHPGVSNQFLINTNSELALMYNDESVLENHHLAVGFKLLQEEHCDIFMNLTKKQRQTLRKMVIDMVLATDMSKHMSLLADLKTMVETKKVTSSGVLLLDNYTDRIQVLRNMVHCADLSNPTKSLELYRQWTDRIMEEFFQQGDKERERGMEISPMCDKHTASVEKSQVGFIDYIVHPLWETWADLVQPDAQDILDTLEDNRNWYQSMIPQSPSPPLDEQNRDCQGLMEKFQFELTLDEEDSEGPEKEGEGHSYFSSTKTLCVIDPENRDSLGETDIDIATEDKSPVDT
The data set is described as follows: IC50 on human recombinant PDE4B. It is filed as biochemical.

Data set [12] addresses T4, PDE3 (Bos taurus, UniProt A0A3Q1M1E8).
T4 sequence (A0A3Q1M1E8 1-1126): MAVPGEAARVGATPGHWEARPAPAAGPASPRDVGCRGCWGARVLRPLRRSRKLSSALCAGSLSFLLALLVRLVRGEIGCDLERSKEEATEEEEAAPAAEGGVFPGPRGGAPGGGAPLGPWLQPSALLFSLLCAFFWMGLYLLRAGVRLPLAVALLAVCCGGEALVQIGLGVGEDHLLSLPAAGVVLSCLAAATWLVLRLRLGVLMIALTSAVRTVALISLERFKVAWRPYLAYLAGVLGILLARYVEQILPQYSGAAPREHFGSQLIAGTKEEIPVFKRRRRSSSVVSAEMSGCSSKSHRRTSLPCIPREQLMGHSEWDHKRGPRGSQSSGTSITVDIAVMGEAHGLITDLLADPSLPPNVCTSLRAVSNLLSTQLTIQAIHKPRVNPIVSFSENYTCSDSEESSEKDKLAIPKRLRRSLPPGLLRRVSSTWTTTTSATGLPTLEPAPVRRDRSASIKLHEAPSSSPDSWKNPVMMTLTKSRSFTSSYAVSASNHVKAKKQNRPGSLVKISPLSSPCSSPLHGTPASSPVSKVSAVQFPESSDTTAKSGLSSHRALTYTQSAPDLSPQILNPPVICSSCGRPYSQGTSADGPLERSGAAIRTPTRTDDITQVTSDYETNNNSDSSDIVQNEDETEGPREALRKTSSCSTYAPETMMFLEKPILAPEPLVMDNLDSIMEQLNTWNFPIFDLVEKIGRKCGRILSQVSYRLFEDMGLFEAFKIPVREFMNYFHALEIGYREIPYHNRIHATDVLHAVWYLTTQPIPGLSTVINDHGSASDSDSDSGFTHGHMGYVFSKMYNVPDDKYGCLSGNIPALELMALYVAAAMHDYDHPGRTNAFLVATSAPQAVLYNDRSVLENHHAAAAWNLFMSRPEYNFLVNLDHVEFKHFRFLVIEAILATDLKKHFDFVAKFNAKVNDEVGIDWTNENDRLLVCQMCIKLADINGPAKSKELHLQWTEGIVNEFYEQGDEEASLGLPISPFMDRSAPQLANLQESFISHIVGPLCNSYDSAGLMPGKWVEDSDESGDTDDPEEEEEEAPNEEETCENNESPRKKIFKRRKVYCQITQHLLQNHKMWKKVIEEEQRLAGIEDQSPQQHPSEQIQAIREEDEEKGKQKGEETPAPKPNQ
The data set can be described thus: IC50 on purified PDE3 isozyme. The note with it: 1 µM cAMP substrate; mean±s.e.m. of three experiments. Format: biochemical, bovine. The protocol:
PDE2 was isolated from human platelets following the method described in [44]. Purified PDEs were stored as small aliquots at −80°C until use. PDE activity was determined at a substrate concentration of 1 µM cAMP or cGMP in the presence of 10,000 cpm [^3H]-cAMP or -cGMP as tracers. PDE1 activity was assessed at 1 µM cGMP in calmodulin-activated state (18 nM calmodulin with 10 µM CaCl2). […] This concentration of DMSO had no effect when tested in control preparation.

Data set [13] relates to PDE4. Also on record: method as in PMID 9191951. The note with it: text value with reference; cited from earlier work.
The target of data set [14] is T5, human recombinant PDE4D (Homo sapiens, UniProt Q08499).
T5 construct: gift of Ted J. Torphy (SmithKline Beecham Pharmaceuticals, King of Prussia, PA, USA)
T5 sequence (Q08499 whole entry): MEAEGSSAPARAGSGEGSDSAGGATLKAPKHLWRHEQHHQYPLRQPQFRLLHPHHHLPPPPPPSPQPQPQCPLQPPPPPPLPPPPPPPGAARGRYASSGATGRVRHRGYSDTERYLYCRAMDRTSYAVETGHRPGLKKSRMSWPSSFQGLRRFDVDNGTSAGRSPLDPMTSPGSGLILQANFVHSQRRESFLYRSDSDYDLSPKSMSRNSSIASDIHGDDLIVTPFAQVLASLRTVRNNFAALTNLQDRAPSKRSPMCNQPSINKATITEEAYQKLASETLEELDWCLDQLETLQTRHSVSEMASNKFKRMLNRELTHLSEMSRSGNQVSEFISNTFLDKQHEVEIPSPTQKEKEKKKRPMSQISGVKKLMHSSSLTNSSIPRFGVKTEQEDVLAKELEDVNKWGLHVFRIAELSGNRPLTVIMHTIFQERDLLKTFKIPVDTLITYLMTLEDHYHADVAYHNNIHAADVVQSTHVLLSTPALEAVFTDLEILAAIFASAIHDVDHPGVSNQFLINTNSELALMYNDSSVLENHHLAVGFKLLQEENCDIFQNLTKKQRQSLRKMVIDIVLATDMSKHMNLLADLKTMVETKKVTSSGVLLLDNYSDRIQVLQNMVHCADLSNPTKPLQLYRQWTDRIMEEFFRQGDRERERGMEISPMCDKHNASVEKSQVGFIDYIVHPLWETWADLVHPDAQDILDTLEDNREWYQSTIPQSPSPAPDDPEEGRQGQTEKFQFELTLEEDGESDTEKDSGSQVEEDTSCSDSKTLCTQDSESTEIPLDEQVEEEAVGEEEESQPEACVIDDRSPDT
The data set can be described thus: IC50 on human recombinant PDE4D. It is filed as biochemical.

The target of data set [15] is T6, human recombinant PDE4C (Homo sapiens, UniProt Q08493).
T6 construct: gift of Ted J. Torphy (SmithKline Beecham Pharmaceuticals, King of Prussia, PA, USA)
T6 sequence (Q08493 whole entry): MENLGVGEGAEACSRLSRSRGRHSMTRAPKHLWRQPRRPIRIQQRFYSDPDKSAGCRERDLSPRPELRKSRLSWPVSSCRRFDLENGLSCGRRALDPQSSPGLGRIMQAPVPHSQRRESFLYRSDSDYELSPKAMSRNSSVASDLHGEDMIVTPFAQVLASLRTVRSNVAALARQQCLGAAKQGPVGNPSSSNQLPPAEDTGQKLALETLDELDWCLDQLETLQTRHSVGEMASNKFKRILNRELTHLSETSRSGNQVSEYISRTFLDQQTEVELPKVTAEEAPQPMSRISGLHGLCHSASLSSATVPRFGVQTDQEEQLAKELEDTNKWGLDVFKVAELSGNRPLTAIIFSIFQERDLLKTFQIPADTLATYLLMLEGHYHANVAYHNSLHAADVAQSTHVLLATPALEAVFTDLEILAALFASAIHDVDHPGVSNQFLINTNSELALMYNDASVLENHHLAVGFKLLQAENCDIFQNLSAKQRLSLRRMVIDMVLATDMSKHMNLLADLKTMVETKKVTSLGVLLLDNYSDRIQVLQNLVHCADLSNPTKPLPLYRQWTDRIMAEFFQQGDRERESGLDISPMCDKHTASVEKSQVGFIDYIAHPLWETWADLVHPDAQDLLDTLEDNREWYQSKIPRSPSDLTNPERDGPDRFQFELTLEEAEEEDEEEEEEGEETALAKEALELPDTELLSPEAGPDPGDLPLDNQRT
The data set is described as follows: IC50 on human recombinant PDE4C. The note with it: 1 µM cAMP; with confidence interval. It is filed as biochemical.

In data set [16] the target is High Affinity Rolipram Binding Site (HARBS). The data set is described as follows: 3H-rolipram binding assay on rat brain membranes. To be noted: rat brain membrane, 4 nM 3H-rolipram; read-out: Ki toward 3H-rolipram binding (HARBS).
Procedure: The assay was done in 50 mM N-Tris hydroxymethyl methyl-2-aminoethane sulfonic acid/NaOH buffer, pH 7.6, containing 10 mM MgCl2, 0.1 M NaCl and 100 µM 5′AMP. […] Binding assays were started by the addition of 100 µL of rat brain membrane (0.9 mg protein/mL) to the reaction mixture and conducted at 23°C for 1 h under agitation and stopped by the addition of 3 mL of ice-cold reaction buffer and rapid vacuum filtration through Whatman GF/B filters that have been soaked in 0.3% (v/v) polyethylenimine. Filters were washed twice (3 ml of ice-cold reaction buffer without 5′AMP), dried and counted by liquid scintillation. […] Ki and confidence interval values of binding studies were determined by using one site fit Ki GraphPad Prism5 analysis.
The target in data set [17] is T7, human recombinant PDE4A (Homo sapiens, UniProt P27815).
T7 construct: gift of Ted J. Torphy (SmithKline Beecham Pharmaceuticals, King of Prussia, PA, USA)
T7 sequence (P27815 whole entry): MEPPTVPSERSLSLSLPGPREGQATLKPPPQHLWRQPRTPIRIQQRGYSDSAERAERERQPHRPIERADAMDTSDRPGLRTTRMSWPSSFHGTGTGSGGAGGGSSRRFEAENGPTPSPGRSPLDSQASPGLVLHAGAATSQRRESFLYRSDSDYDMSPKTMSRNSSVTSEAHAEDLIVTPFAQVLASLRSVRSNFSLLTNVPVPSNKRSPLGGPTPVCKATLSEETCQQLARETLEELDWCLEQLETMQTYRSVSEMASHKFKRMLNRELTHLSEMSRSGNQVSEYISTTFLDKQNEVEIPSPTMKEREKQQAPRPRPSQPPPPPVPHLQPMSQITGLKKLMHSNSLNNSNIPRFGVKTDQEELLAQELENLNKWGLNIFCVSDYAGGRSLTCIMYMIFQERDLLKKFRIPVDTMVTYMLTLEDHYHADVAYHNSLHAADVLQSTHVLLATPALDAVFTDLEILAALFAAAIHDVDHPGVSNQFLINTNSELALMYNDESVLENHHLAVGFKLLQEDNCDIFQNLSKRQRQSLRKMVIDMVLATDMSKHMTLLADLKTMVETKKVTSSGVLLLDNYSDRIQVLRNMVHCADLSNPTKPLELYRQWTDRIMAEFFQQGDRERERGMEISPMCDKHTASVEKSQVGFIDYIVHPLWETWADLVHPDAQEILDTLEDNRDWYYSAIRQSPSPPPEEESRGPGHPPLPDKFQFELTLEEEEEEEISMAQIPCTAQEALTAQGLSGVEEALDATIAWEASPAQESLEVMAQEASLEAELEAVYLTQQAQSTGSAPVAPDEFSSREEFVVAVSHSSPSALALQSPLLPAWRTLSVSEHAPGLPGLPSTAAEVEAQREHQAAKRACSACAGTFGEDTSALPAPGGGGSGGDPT
The data set can be described thus: IC50 on human recombinant PDE4A. It is filed as biochemical.

The mark [18] stands for this setting: 1 µM cAMP, with confidence interval.

With `CCCCn1c(=O)c2c(ncn2CC(C)=O)n(CCCC)c1=O` [Denbufylline, denbufylline], the IC50 (in general, the concentration that inhibits the measured activity by half) in data set [1] came out at 760 ± 50 nM. In data set [2], the IC50 amounted to 133000 ± 11000 nM. Moreover, in data set [3], the Median survival time was 26.5 weeks, the “Mice with positive proteinuria” value was “around 50%” and the “Age at which treated mice started dying” value is given as 15 weeks. Moreover, the “Inhibition rate of LPS-induced TNFα secretion” value (“Inhibition rate” for short) in [4] was found to be 70%.
With `CC(=O)CCCCn1c(=O)c2c(ncn2C)n(C)c1=O` [Pentoxifylline, pentoxifylline], the IC50 in [1] amounted to 135000 ± 11000 nM; in data set [2] it was 236000 ± 20000 nM; in [5] it was 119000 ± 10000 nM; in [6] it was 74000 ± 6000 nM. Also, the Median survival time in data set [3] is listed as 27.5 weeks. The “Mice with positive proteinuria” value in data set [3] was “around 50%”. Also, in data set [3], the “Proteinuria level compared to the control group” value is reported as “significantly lower”. For the same compound, the “Age at which treated mice started dying” value in [3] turned out to be 22 weeks. Further, in data set [4], the “Inhibition rate” value came out at 51%.
Turning to `CNc1nc(C(F)(F)F)nc2c1ncn2Cc1ccccc1F` [NCS 613], the “Induction of acid gastric secretion” value in [7] is “does not induce”. The “PDE4 selectivity relatively to PDE1” value in data set [1] amounted to 930 fold. Further, in data set [1], the “PDE4 selectivity relatively to PDE5” value turned out to be 112 fold. The IC50 in data set [1] is 42 ± 3 nM; in data set [9], 18 nM; in data set [2], 39000 ± 2000 nM; in data set [11] it was 48 nM; in data set [11] (setting [18]), 48.1 nM; in [12] it was more than 300000 nM. Moreover, the IC50 is 42 nM in data set [13]; 14 nM in [14]; 14.4 nM in data set [14] (setting [18]); 1.4 nM in [15]; 24000 ± 3000 nM in data set [5]; 44 nM in [17]. Also, the IC50 in [17] (setting [18]) was 43.6 nM; in data set [6], 4700 ± 100 nM. Also, the PDE5/PDE4 ratio in data set [1] (ratio of IC50 values PDE5/PDE4) is 111.9. Besides, in data set [8], the “Solubility in PBS-10% ethanol” value is recorded as “not soluble”. Also, in data set [10] (10 µM, no LPS, cells from patient 2), the “Decrease of basal TNFα secretion level” value was determined as 67%. Further, the “Effect on LPS-induced TNFα production” value in [10] (patient SLE1, 0.1 µM) is “No effect”; in data set [10] (patient SLE1, 1 µM), “significantly suppressed”; in [10] (patient SLE1, 10 µM), “significantly suppressed”. Also, the Ki (commonly the equilibrium dissociation constant of an inhibitor or competing ligand from its target) in data set [16] came out at 148 nM. Besides, the “Age of the first mouse that developed proteinuria” value in data set [3] (30 µg i.v. at 5, 7, 9 and 13 weeks) is on record as 18 week-old. The “Effect on survival of MRL/lpr mice” value in data set [3] (30 µg i.v. at 5, 7, 9 and 13 weeks, P = 0.005) is “significantly increased”. This compound displayed a Mice still alive in data set [3] (at 31 weeks, 30 µg i.v. at 5, 7, 9 and 13 weeks) of 50%. For the same compound, the “Proteinuria level compared to the control group” value in data set [3] is reported as “significantly lower”. Further, the “Age at which treated mice started dying” value in data set [3] came to 26 weeks. In data set [4], the “Inhibition rate” value is given as 54%.
